{"source": "paper PMC8711562", "about": "(Drug Design, Development and Therapy, 2021)", "origin": "cited, not measured here", "system": "gastric pH", "conditions": "beagles"}
{"smiles": "COc1ccc2[nH]c([S+]([O-])Cc3ncc(C)c(OC)c3C)nc2c1", "note": "(stereo not shown) [Omeprazole]", "values": [{"measurement": "gastric pH elevated to", "result": 6}]}
